The values below are quoted from earlier work in paper PMC9353746 (ACS chemical neuroscience, 2021).

For the series, the target named is T1, recombinant A1 adenosine receptor (human) (Homo sapiens, UniProt P30542).
T1 sequence (P30542 1-326): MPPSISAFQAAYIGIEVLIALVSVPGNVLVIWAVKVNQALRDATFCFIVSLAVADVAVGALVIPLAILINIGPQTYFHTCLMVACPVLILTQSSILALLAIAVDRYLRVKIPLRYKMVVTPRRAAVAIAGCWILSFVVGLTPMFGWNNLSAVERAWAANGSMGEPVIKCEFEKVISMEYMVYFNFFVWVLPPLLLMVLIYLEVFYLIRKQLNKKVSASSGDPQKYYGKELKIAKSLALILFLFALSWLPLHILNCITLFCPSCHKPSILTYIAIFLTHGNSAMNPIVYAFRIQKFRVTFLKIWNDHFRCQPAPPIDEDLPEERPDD
To be noted: read-out: Ki, A1R.

Consider `COc1cccc(-c2c(C#N)c(N)nc(SCc3cccc(C)n3)c2C#N)c1` [[^11C]MMPD, 2-amino-4-(3-(methoxy-^11C)phenyl)-6-(((6-methylpyridin-2-yl)methyl)thio)pyridine-3,5-dicarbonitrile], for which the Ki (in general, the dissociation constant of the complex between target and ligand, obtained from inhibition or displacement) is 0.49 nM.
